# Experimental data: patent US7776558B2, “Human G protein-coupled receptor and modulators thereof for the treatment of cell death-related disorders” (Arena Pharmaceuticals, Inc., priority 2003, dated 2010)
# “Also recorded” adds a separate entry of the source. Where no end group is shown, it is not given here.
# Tests used:
# [1] = test system: differentiated SH-SY5Y cells; assay: Aβ-induced cell death of differentiated SH-SY5Y cells; assay type: cell-based, human; settings: AB1-42 80 μg/ml; Humanin 1 μM; Compound 1 20 μM, 5 μM or 1 μM; Trypan Blue staining; FIG. 12
# Method: SH-SY5Y is a human neuroblastoma cell line. Differentiation of SH-SY5Y into neuronal-like cells was carried out by treatment with retinoic acid (10 μM) for five days followed by treatment with BDNF (10 ng/ml) for two days. Aβ (AB1-42) was purchased from Biosource International (Camarillo, Calif.; catalog no. 03-111).
# The assay was carried out in serum-free medium. AB1-42 was used at 80 μg/ml. […] Compound 1 was used at either 20 μM, 5 μM or 1 μM.
# Cell survival was determined by Trypan Blue staining.
# [2] = test system: serum-deprived differentiated SH-SY5Y cells; assay: Cell death of serum-deprived differentiated SH-SY5Y cells; assay type: cell-based, human; settings: serum-free medium 6 days; LDH assay (panel A) or Trypan Blue staining (panel B); FIG. 10
# Method: Briefly, SH-SY5Y cells were differentiated into neuronal-like cells by treatment with retinoic acid (10 μM) for five days followed by treatment with BDNF (10 ng/ml) for two days. […] Cell viability was determined by lactate dehydrogenase (LDH) assay (Roche, Indianapolis, Ind.; catalog no. 1644793) or by trypan blue staining. LDH is a stable cytoplasmic enzyme present in all cells which is rapidly released upon damage to the plasma membrane. The level of LDH is inversely proportional to the number of viable cells. The LDH assay was carried out as per manufacturer's instructions.
# [3] = molecular target: T1, FPRL2 (Homo sapiens, UniProt P25089); assay: Pertussis toxin sensitivity of signaling, adenylate cyclase assay in HEK293 cells; assay type: cell-based; design: expressed in transfected cells; settings: pre-treated 18 to 20 hrs with 50 ng/ml pertussis toxin; 5 μM forskolin; FIG. 7
# T1 sequence (P25089 1-353): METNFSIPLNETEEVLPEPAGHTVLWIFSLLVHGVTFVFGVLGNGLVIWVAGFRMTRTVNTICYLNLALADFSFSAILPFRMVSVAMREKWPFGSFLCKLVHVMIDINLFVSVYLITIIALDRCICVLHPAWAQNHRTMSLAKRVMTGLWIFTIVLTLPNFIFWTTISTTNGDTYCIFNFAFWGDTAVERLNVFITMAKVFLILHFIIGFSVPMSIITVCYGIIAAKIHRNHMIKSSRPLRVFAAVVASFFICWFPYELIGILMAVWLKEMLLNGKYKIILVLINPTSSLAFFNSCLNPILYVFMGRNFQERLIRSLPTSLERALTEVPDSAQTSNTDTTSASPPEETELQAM
# Method: The pertussis toxin sensitivity of Compound 1 signalling through human FPRL2 was determined similarly.
# Samples were then assessed for cAMP levels as described in Example 4, supra.
# [4] = molecular target: T2, FPRL1 (Homo sapiens, UniProt P25090); assay: Whole cell adenylate cyclase (cAMP) assay, stably transfected HEK293 cells; assay type: cell-based; settings: in the presence of 5 μM forskolin, FIG. 6
# T2 sequence (P25090 1-351): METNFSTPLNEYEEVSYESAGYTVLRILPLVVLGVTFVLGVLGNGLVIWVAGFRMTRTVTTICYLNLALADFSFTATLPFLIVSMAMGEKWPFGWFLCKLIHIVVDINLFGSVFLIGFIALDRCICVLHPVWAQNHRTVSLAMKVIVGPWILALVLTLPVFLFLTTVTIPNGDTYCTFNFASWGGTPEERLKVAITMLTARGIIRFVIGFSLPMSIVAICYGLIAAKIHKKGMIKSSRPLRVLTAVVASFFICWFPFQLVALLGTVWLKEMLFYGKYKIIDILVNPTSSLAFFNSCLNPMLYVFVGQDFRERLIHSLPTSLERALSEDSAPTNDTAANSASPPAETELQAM
# From the text: A Flash Plate™ Adenylyl Cyclase kit (New England Nuclear; Cat. No. SMP004A) designed for cell-based assays can be modified for use with crude plasma membranes. The Flash Plate wells can contain a scintillant coating which also contains a specific antibody recognizing cAMP. The cAMP generated in the wells can be quantitated by a direct competition for binding of radioactive cAMP tracer to the cAMP antibody. The following serves as a brief protocol for the measurement of changes in cAMP levels in whole cells that express the receptors.
# Transfected cells are harvested approximately twenty four hours after transient transfection. Media is carefully aspirated off and discarded. 10 ml of PBS is gently added to each dish of cells followed by careful aspiration. 1 ml of Sigma cell dissociation buffer and 3 ml of PBS are added to each plate. Cells are pipetted off the plate and the cell suspension is collected into a 50 ml conical centrifuge tube. Cells are then centrifuged at room temperature at 1,100 rpm for 5 min. The cell pellet is carefully re-suspended into an appropriate volume of PBS (about 3 ml/plate). The cells are then counted using a hemocytometer and additional PBS is added to give the appropriate number of cells (with a final volume of about 50 μl/well). […]
# In FIG. 6, agonist activity was determined through adenylate cyclase activity. […] Samples were then assessed for the level of intracellular cAMP as described in Example 4, supra.
molecule,measurement,setting,value
"CC(C)c1ccc2c(c1)CCC1C(C)(C(N)=O)CCCC21C (stereo not drawn) [Compound 1, 7-Isopropyl-1,4a-dimethyl-1,2,3,4,4a,9,10,10a-octahydro-phenanthrene-1-carboxylic acid amide]",Protection from Aβ-induced cell death,[1],protect differentiated SH-SY5Y cells from Aβ-induced cell death
same,Inhibition of cell death of serum-deprived SH-SY5Y cells,[2],inhibit cell death
same,Pertussis toxin sensitivity of the inhibition of cAMP through FPRL2,[3],pertussis sensitive
MAPRGFSCLLLLTGEIDLPVKRRA [[Gly14]-Humanin],"Agonist activity at FPRL1, intracellular cAMP",[4],agonists of both FPRL1 and FPRL2; also recorded: agonists of both FPRL2 and FPRL1
CC[C@H](C)[C@H](NC(=O)[C@H](CCC(=O)O)NC(=O)[C@H](CO)NC(=O)[C@@H](NC(=O)[C@H](CC(C)C)NC(=O)[C@H](CC(C)C)NC(=O)[C@H](CC(C)C)NC(=O)[C@H](CC(C)C)NC(=O)[C@H](CS)NC(=O)[C@H](CO)NC(=O)[C@H](Cc1ccccc1)NC(=O)CNC(=O)[C@H](CCCNC(=N)N)NC(=O)[C@@H]1CCCN1C(=O)[C@H](C)NC(=O)[C@@H](N)CCSC)[C@@H](C)O)C(=O)N[C@@H](CC(=O)O)C(=O)N[C@@H](CC(C)C)C(=O)N1CCC[C@H]1C(=O)N[C@H](C(=O)N[C@@H](CCCCN)C(=O)N[C@@H](CCCNC(=N)N)C(=O)N[C@@H](CCCNC(=N)N)C(=O)N[C@@H](C)C(=O)O)C(C)C [Humanin],Protection from Aβ-induced cell death,[1],protect differentiated SH-SY5Y cells from Aβ-induced cell death
same,Inhibition of cell death of serum-deprived SH-SY5Y cells,[2],inhibit cell death
same,Pertussis toxin sensitivity of the inhibition of cAMP through FPRL2,[3],pertussis sensitive
same,"Agonist activity at FPRL1, intracellular cAMP",[4],agonists of both FPRL1 and FPRL2
same,"Agonist activity at FPRL1, intracellular cAMP",[4]; listed as Human,agonists of both FPRL2 and FPRL1
